Patent publication US20260049282A1, “METHOD FOR REMOVING SENESCENT CELL, AND METHOD FOR PREPARING SENESCENT CELL” (The University of Tokyo, priority 2018, published 2026)

Key:
senescent cells [1] = assay: Effect of mPTP inhibitors on cell death of BPTES-treated cells (trypan blue count); format: cell-based, human; conditions: BPTES 10 μM alone
Description: The previous reports have shown that lowering intracellular pH causes apoptosis-independent cell death through the opening of mitochondrial permeability transition pore (mPTP) by the BNIP3 protein. Therefore, the effects of mPTP inhibitors (DUB and CsA) on BPTES-treated cells were examined.
(§1) Senescent cells and normal cells were separately seeded in 6-cm culture dishes such that approximately 10,000 cells were in each dish. […] Thereafter, the cells were stained with trypan blue every 24 hours, and the number of viable cells was counted using a hemocytometer.

[2] = test system: ammonia production in senescent cells; assay: Intracellular ammonia quantification (ammonia assay kit); format: cell-based, human; conditions: BPTES final concentration 10 μM, 24 hours
Description: Senescent cells and normal cells were separately seeded in 10-cm culture dishes such that approximately 50,000 cells were in each dish. […] Thereafter, the amount of ammonia in cells was quantified using the ammonia assay kit (abcam).

[3] = test system: normal cells (normal human fibroblasts HCA2); assay: Viable cell count (trypan blue) of normal cells treated with glutaminase inhibitor; format: cell-based; conditions: BPTES final concentration 10 μM, 3 days
Description: (§2) Senescent cells and normal cells were seeded in 6-cm culture dishes such that approximately 10,000 cells were in each dish.

aged mice (76 weeks old) = assay: Age-associated dysfunction of kidney, lung, heart and liver in aged mice; format: in vivo; conditions: BPTES 0.25 mg/20 g/200 μl intraperitoneally, 1 month
Description: It is examined whether removal of senescent cells by inhibition of glutaminolysis could improve aging or age-associated organ dysfunction.
The kidney, lung, liver, and heart were embedded with an OCT compound, thereby preparing frozen sections. Thereafter, tissue staining with hematoxylin-eosin (H&E), tissue staining with a Masson trichrome (MT) reagent, a periodic acid Schiff (PAS) reagent (Fisher Scientific), or immunostaining with DAB (3,3′-diaminobenzidine tetrahydrochloride) (DAKO) using an anti-F4-80 antibody (CST) was performed. After staining, tissue sections were observed under a microscope.
Kidney glomerulosclerosis was evaluated for 40 glomeruli per individual based on PAS-positive intensity and range. In addition, the serum urea concentration and creatinine concentration were measured using the Urea Assay kit (Abcam) and the Creatinine Assay kit (Abcam), respectively.
The degree of lung fibrosis was assessed by MT staining. […] In addition, when the MT-stained area was quantified by a BZ-X analyzer (Keyence), the degree of fibrosis was improved in the lungs of BPTES-treated mice as compared with the lungs of control mice (FIG. 7B, top).
For the heart, MT staining of heart tissue sections was performed so as to assess the degree of fibrosis (FIG. 8A). In addition, the heart weight was weighed, and the cardiomyocyte size was measured with a BZ-X analyzer (Keyence). As for the heart, the degree of fibrosis in the heart of BPTES-treated mice was improved as compared with the control mice (FIG. 8B).
Liver tissue sections were immunostained with an anti-F4/80 antibody (FIG. 9A) so as to assess the degree of macrophage infiltration. The degree of macrophage infiltration in the liver of BPTES-treated mice was improved compared to control mice (FIG. 9B).

[4] = test system: senescent cells (senescence-induced normal human fibroblasts HCA2); assay: Viable cell count (trypan blue) of senescent cells treated with glutaminase inhibitor; format: cell-based
Description: RO3306 (SIGMA-ALDRICH) (final concentration: 9 μM) was added to normal human fibroblasts (HCA2), followed by culture at 37° C. and 5% CO2 for 16 hours. Next, culture was performed at 37° C. and 5% CO2 for 8 hours in a culture medium containing RO3306 (final concentration: 9 μM) and Nutlin-3a (SIGMA-ALDRICH) (final concentration: 10 μM), and then culture was performed at 37° C. and 5% CO2 for 48 hours in a culture medium containing Nutlin-3a (final concentration: 10 μM). Culture was performed at 37° C. and 5% CO2 for 9 days while replacing the medium with a medium containing BI2536 (SIGMA-ALDRICH) (final concentration: 100 nM) every 3 days. Thereafter, senescence induction was carried out by performing culture at 37° C. and 5% CO2 for 9 days while replacing the medium with a normal medium (FIG. 1A).
as §2

mice fed a high fat diet = assay: Obesity-associated senescent cell accumulation, macrophage infiltration and hypertrophy of white adipose tissue (high-fat diet mice); format: in vivo; conditions: high-fat diet 8 weeks, BPTES 0.25 mg/20 g/200 μl i.p. 3 times a week in latter 4 weeks
Description: Eight-week-old male mice (C57BL/6N) were maintained on a high-fat diet (HFD32, CLEA Japan) or a normal diet for 8 weeks. […] Then, white adipose tissue was collected from mice, and the accumulation of senescent cells was examined by SA-β-gal staining, and macrophage infiltration was examined by immunostaining with the anti-F4/80 antibody. In situ staining with SA-β-gal and the determination of the abundance ratio of SA-β-gal positive cells were carried out as described in 2-5-2. The degree of macrophage infiltration was determined as described in 2-5-1. The adipocyte size was measured with a BZ-X analyzer (Keyence).

[5] = test system: mice on choline-deficient L-amino acid-defined high-fat diet; assay: Liver dysfunction associated with non-alcoholic steatohepatitis (choline-deficient L-amino acid-defined high-fat diet mice); format: in vivo; conditions: NASH diet 8 weeks, BPTES 0.25 mg/20 g/200 μl i.p. 3 times a week in latter 4 weeks
Description: Eight-week-old male mice (C57BL/6N) were maintained on a choline-deficient L-amino acid-defined high-fat diet (A06071302, Research Diets Inc.) for 8 weeks. […] The serum AST level and the hydroxyproline (OH-Pro) level in the liver were measured by the AST assay kit (Abcam) and the Hydroxyproline assay kit (Abcam), respectively. In addition, the expression levels of p16, KGA, and IL-6 were measured by qPCR. Primers for qPCR are shown below.

[6] = test system: ApoE knockout mice on atherogenetic diet; assay: Obesity-associated atherosclerosis in ApoE knockout mice (Sudan IV staining of aorta); format: in vivo; conditions: atherogenetic diet 8 weeks, BPTES 0.25 mg/20 g/200 μl i.p. 3 times a week in latter 4 weeks
Description: C57BL/6J ApoE knockout mice (8 weeks old) were maintained on an atherogenetic diet (D12108C, Research Diets Inc.) for 8 weeks. […] In addition, C57BL/6J wild-type male mice (8 weeks old) were maintained on a normal diet as controls. All aortas except the arterial arch were cleanly depleted of adventitial fat, incised, and fixed flat in 4% […] at 25° C. for 12 hours. The aorta was washed with 70% ethanol for 5 minutes, incubated in 0.5% Sudan IV (in 1:1 acetone/ethanol) for 5 minutes, and then washed 3 times with 80% ethanol for 1 minute. Plaque formed in the aorta was stained with Sudan IV, the Sudan IV-positive area was quantified with ImageJ, and the plaque number was counted under a microscope.

[7] = test system: intracellular pH in senescent cells; assay: Intracellular pH measurement; format: cell-based, human; set-up: dose or concentration left out as unconfirmed; conditions: BPTES final concentration, 24 hours; normal level about 7.4
Description: Next, senescent cells and normal cells were separately seeded in 6-cm well plates such that approximately 50,000 cells were in each plate. […] The medium was removed, culture was performed at 37° C. and 5% CO2 for 10 minutes in a HEPES solution containing […] (DOJINDO LABORATORIES) at a final concentration of 3 μM, and washing with the HEPES solution was performed three times. Thereafter, luminescence was measured with a plate reader. In order to determine the pH value, the amount of luminescence of cells treated with the HEPES solution (pH 6.0 to 7.6) containing nigericin at a final concentration of 10 μM was corrected.

[8] = test system: p16 mRNA (marker of senescent cells); assay: Removal of senescent cells in vivo: p16 mRNA by qPCR in organs of aged mice; conditions: 96-week-old C57BL6/N male mice, 12.5 mg/kg body weight once a week for 1 month
Description: Then, each mouse was dissected, RNA was extracted by homogenizing the heart, brain, kidney, and liver, and total RNA was prepared using the RNeasy mini kit (Qiagen) according to the attached protocol and reverse transcribed into cDNA using the ReverTra Ace qPCR RT kit (Takara). Using the obtained cDNA, the expression level of p16 mRNA, which is a marker of senescent cells, was analyzed by qPCR using Power SYBR Green PCR Master Mix (Applied Biosystems). The p16 mRNA expression level was corrected by the value of GAPDH. Primers for detecting the p16 mRNA expression level are shown below.

[9] = test system: IL-6 and IL-8 mRNA expression; assay: qPCR of SASP factors IL-6 and IL-8 mRNA in senescent cells; format: cell-based, human; conditions: BPTES 2.5 μM, 24 hours
Description: After reverse transcription from total RNA into cDNA using the SuperScript II cDNA synthesis kit (Invitrogen) was performed, qPCR analysis was performed using the Power SYBR Green PCR Master Mix (Applied Biosystems) so as to measure the IL-6 and IL-8 expression levels. Primers for detecting the IL-6 and IL-8 mRNA expression levels are shown below.

senescent cells [10] = assay: Cell viability of BPTES-treated cells in weakly basic medium (trypan blue count); format: cell-based, human; conditions: BPTES 10 μM
Description: Next, the pH of the medium of BPTES-treated cells was made weakly basic (pH 8.0 or pH 8.5), and the cell viability was examined.
as §1

[11] = test system: S6K protein T389 phosphorylation (indicator of activation of mTOR); assay: Western blotting of S6K protein T389 phosphorylation in senescent cells; format: cell-based, human
Description: Further, the molecular mechanism of SASP inhibition was analyzed. […] Cell extracts were prepared from the cultured cells using Laemmli-buffer (2% SDS, 10% glycerol, 5% 2-mercaptoethanol, 0.002% bromophenol blue, and 62.5 mM Tris HCl at pH 6.8). Cell extracts (20 to 50 μg) were separated by SDS-PAGE, and after transcription to PVDF membrane, Western blotting was performed using an antibody to the T389 phosphorylation site of the […] protein (CST), an antibody to the S6K protein (CST), and an antibody to the p16 protein (abcam), and detection was performed by ECL.

O=C(Cc1ccccc1)Nc1nnc(CCSCCc2nnc(NC(=O)Cc3ccccc3)s2)s1 [BPTES, bis-2-(5-phenylacetamido-1,3,4-thiadiazol-2-yl)ethyl sulfide]
cell death seen with BPTES treatment (senescent cells [1]): at least 90% | ammonia production in senescent cells [2]: suppresses the increased ammonia production in senescent cells to the same level as in normal cells | number of cells (viable cells) [3]: increase in the number of cells | cardiomyocyte size (aged mice (76 weeks old)): smaller than that of control mice | heart weight (aged mice (76 weeks old)): lighter than that of young mice | serum creatinine concentration (aged mice (76 weeks old)): reduced | serum urea concentration (aged mice (76 weeks old)): reduced | degree of fibrosis in the heart (MT staining) (aged mice (76 weeks old); vs control mice): improved | degree of glomerulosclerosis (PAS staining) (aged mice (76 weeks old); vs control mice): improved | degree of lung fibrosis (MT-stained area) (aged mice (76 weeks old); vs control mice): improved | degree of macrophage infiltration in the liver (anti-F4/80 immunostaining) (aged mice (76 weeks old); vs control mice): improved | impact on the survival of senescent cells ([4]; BPTES final concentration 2.5 μM): little impact | accumulation of senescent cells associated with obesity (SA-β-gal, white adipose tissue) (mice fed a high fat diet): reduced | degree of macrophage infiltration in white adipose tissue (anti-F4/80) (mice fed a high fat diet): reduced | size of adipocytes associated with obesity (mice fed a high fat diet): reduced | weight of white adipose tissue (mice fed a high fat diet): reduced | IL-6 expression level in the liver (qPCR) [5]: lowers | KGA expression level in the liver (qPCR) [5]: lowers | hydroxyproline (OH-Pro) level in the liver [5]: lowers | p16 expression level in the liver (qPCR) [5]: lowers | serum AST level [5]: lowers | aortic plaque area (Sudan IV-positive area) [6]: reduces | aortic plaque number [6]: reduces | intracellular pH in senescent cells [7]: about 6.0 | p16 mRNA expression in the brain [8]: decreased | p16 mRNA expression in the heart [8]: decreased | p16 mRNA expression in the kidney [8]: decreased | p16 mRNA expression in the liver [8]: decreased | IL-6 mRNA expression [9]: inhibits mRNA expression | IL-8 mRNA expression [9]: inhibits mRNA expression | cell death seen with BPTES treatment (senescent cells [10]; medium not weakly basic (pH 7.4)): at least 90% | cell death with BPTES under weakly basic pH conditions (senescent cells [10]; medium pH 8.0 or pH 8.5): about 30% | phosphorylation of the S6K protein T389 ([11]; BPTES 2.5 μM, 24 hours): inhibits phosphorylation

COC(=O)CCC(=O)C(=O)OC [DM-KG]
rescue of senescent cell-selective cell death caused by BPTES ([4]; BPTES 10 μM plus transmembrane α-ketoglutaric acid): could hardly rescue | rescue of the BPTES inhibitory effect on S6K T389 phosphorylation ([11]; BPTES plus DM-KG): rescued
